Laboratory results published in the supplement of paper PMC10307832.

How the values were obtained:
Assay in all cases: relative viability (nuclei count vs DMSO), 5 days (fraction); higher = more cells survive
[1] = system: NCI-H322M
Outline: (§1)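 Lung cancer cell lines in 1536-well plates were dosed by pin tool the day after seeding, either with one drug alone or with a fixed anchor-drug dose plus five library-drug doses (not always all listed) in √10 steps. After 5 days, cells were fixed and their nuclei stained in one step (final 0.05% Triton X-100, 1% formaldehyde, 1 ug/ml Hoechst), then counted on 4× images. Relative viability is the nuclei count in treated wells divided by that in vehicle wells. Values are medians of duplicate plates.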

[2] = system: NCI-H727
Outline: as §1

[3] = system: NCI-H2009
Outline: as §1

[4] = system: NCI-H1355
Outline: as §1

[5] = system: NCI-H23
Outline: as §1

[6] = system: NCI-H650
Outline: as §1

[7] = system: NCI-H2023
Outline: as §1

[8] = system: SK-MES-1
Outline: as §1

[9] = system: NCI-H2170
Outline: as §1

[10] = system: NCI-H2405
Outline: as §1

[11] = system: RERF-LC-KJ
Outline: as §1

Q: O=C(O)CCCCC(CCSCc1ccccc1)SCc1ccccc1 (configuration not stated) [CPI-613] + CS(=O)(=O)CCNCc1ccc(-c2ccc3ncnc(Nc4ccc(OCc5cccc(F)c5)c(Cl)c4)c3c2)o1 [Lapatinib] (partner 2 µM) was tested. Which relative viability ([1]; first compound 5 µM) did it give?
A: 0.577

Q: What about the relative viability ([1]; first compound 15.81 µM) of the same compound?
A: 0.485

Q: What about the relative viability ([1]; first compound 50 µM) of the same compound?
A: 0.572

Q: What about the relative viability ([1]; first compound 158.11 µM) of the same compound?
A: 0.552

Q: What about the relative viability ([1]; first compound 500 µM) of the same compound?
A: 0.707

Q: What about the relative viability ([2]; first compound 5 µM) of the same compound?
A: 0.739

Q: What about the relative viability ([2]; first compound 15.81 µM) of the same compound?
A: 0.609

Q: And the relative viability ([2]; first compound 50 µM)?
A: 0.683

Q: And the relative viability ([2]; first compound 158.11 µM)?
A: 0.673

Q: What about the relative viability ([2]; first compound 500 µM) of the same compound?
A: 0.0973

Q: And the relative viability ([3]; first compound 5 µM)?
A: 0.996

Q: And the relative viability ([3]; first compound 15.81 µM)?
A: 0.897

Q: What about the relative viability ([3]; first compound 50 µM) of the same compound?
A: 0.771

Q: What about the relative viability ([3]; first compound 158.11 µM) of the same compound?
A: 0.18

Q: What about the relative viability ([3]; first compound 500 µM) of the same compound?
A: 0.0119

Q: And the relative viability ([4]; first compound 5 µM)?
A: 1.02

Q: And the relative viability ([4]; first compound 15.81 µM)?
A: 0.872

Q: And the relative viability ([4]; first compound 50 µM)?
A: 0.979

Q: And the relative viability ([4]; first compound 158.11 µM)?
A: 0.642

Q: What about the relative viability ([4]; first compound 500 µM) of the same compound?
A: 0.589

Q: And the relative viability ([5]; first compound 5 µM)?
A: 0.95

Q: And the relative viability ([5]; first compound 15.81 µM)?
A: 0.812

Q: And the relative viability ([5]; first compound 50 µM)?
A: 0.873

Q: And the relative viability ([5]; first compound 158.11 µM)?
A: 0.261

Q: And the relative viability ([5]; first compound 500 µM)?
A: 0.0192

Q: What about the relative viability ([6]; first compound 5 µM) of the same compound?
A: 1.05

Q: And the relative viability ([6]; first compound 15.81 µM)?
A: 0.913

Q: And the relative viability ([6]; first compound 50 µM)?
A: 1.11

Q: What about the relative viability ([6]; first compound 158.11 µM) of the same compound?
A: 0.84

Q: And the relative viability ([6]; first compound 500 µM)?
A: 0.724

Q: What about the relative viability ([7]; first compound 5 µM) of the same compound?
A: 0.694

Q: And the relative viability ([7]; first compound 15.81 µM)?
A: 0.63

Q: What about the relative viability ([7]; first compound 50 µM) of the same compound?
A: 0.755

Q: What about the relative viability ([7]; first compound 158.11 µM) of the same compound?
A: 0.0743

Q: What about the relative viability ([7]; first compound 500 µM) of the same compound?
A: 0.0041

Q: What about the relative viability ([8]; first compound 5 µM) of the same compound?
A: 0.458

Q: What about the relative viability ([8]; first compound 15.81 µM) of the same compound?
A: 0.399

Q: What about the relative viability ([8]; first compound 50 µM) of the same compound?
A: 0.428

Q: And the relative viability ([8]; first compound 158.11 µM)?
A: 0.408

Q: And the relative viability ([8]; first compound 500 µM)?
A: 0.458

Q: What about the relative viability ([9]; first compound 5 µM) of the same compound?
A: 0.259

Q: And the relative viability ([9]; first compound 15.81 µM)?
A: 0.273

Q: What about the relative viability ([9]; first compound 50 µM) of the same compound?
A: 0.249

Q: And the relative viability ([9]; first compound 158.11 µM)?
A: 0.261

Q: And the relative viability ([9]; first compound 500 µM)?
A: 0.188

Q: What about the relative viability ([10]; first compound 5 µM) of the same compound?
A: 1.09

Q: And the relative viability ([10]; first compound 15.81 µM)?
A: 1.12

Q: And the relative viability ([10]; first compound 50 µM)?
A: 1.09

Q: What about the relative viability ([10]; first compound 158.11 µM) of the same compound?
A: 0.979

Q: What about the relative viability ([10]; first compound 500 µM) of the same compound?
A: 0.902

Q: And the relative viability ([11]; first compound 5 µM)?
A: 0.857

Q: And the relative viability ([11]; first compound 15.81 µM)?
A: 0.826
